Test results taken from patent US8901038B2, “Biphenyl-substituted cyclic ketoenols” (Bayer CropScience AG, priority 2010, dated 2014).

System: Lucilia cuprina larvae
Assay: Lucilia cuprina test (LUCICU)
Type: in vivo
Details: application rate 100 ppm; treated horse meat; after 2 days
Description: Lucilia cuprina test (LUCICU)
(§1) • Solvent: Dimethyl sulphoxide
To produce a suitable preparation of active compound, 10 mg of active compound are mixed with 0.5 ml of dimethyl sulphoxide and the concentrate is diluted with water to the desired concentration. Containers containing horse meat treated with the active compound preparation of the desired concentration are populated with about 20 Lucilia cuprina larvae.
After 2 days, the kill in % is determined. 100% means that all larvae have been killed; 0% means that none of the larvae have been killed.

For Cc1c(-c2ccc(Cl)cc2)ccc(Cl)c1C1=C(O)C2(CCOCC2)NC1=O [Example I-1-a-15], the “efficacy (kill of larvae)” value was 100%.

System: larvae of the mustard beetle (Phaedon cochleariae)
Assay: Phaedon test (PHAECO spray treatment)
Type: in vivo
Details: application rate 500 g/ha; Chinese cabbage leaf discs sprayed; after 7 days
Description: Phaedon Test (PHAECO Spray Treatment)
(§2) • Solvents: 78.0 parts by weight of acetone • 1.5 parts by weight of dimethylformamide • Emulsifier: 0.5 part by weight of alkylaryl polyglycol ether
To produce a suitable preparation of active compound, one part by weight of active compound is mixed with the stated amounts of solvents and emulsifier, and the concentrate is diluted with emulsifier-containing water to the desired concentration. […].
After 7 days, the effect in % is determined. 100% means that all beetle larvae have been killed; 0% means that none of the beetle larvae have been killed.

CCc1ccc(-c2ccc(Cl)cc2)c(CC)c1C1=C(O)C2(CCOCC2)NC1=O [Example I-1-a-1] and CCc1ccc(-c2ccc(Cl)cc2)c(C)c1C1=C(O)C2(CCOCC2)NC1=O [Example I-1-a-3] are the same in “efficacy (beetle larvae killed)” value: 100% for the first, 100% for the second.

CCON1CCC2(CC1)NC(=O)C(c1c(CC)ccc(-c3ccc(Cl)cc3)c1C)=C2O [Example I-1-a-22] and CCc1ccc(-c2ccc(Cl)cc2)c(C)c1C1=C(O)C2(CCN(OC)CC2)NC1=O [Example I-1-a-23] are the same in “efficacy (beetle larvae killed)” value: 100% for the first, 100% for the second.

CCc1c(-c2ccc(F)cc2)ccc(C)c1C1=C(O)C2(CCC(OC)CC2)NC1=O (stereo not drawn) [Example I-1-a-9] and CCc1ccc(-c2ccc(F)cc2)c(C)c1C1=C(O)C2(CCC(OC)CC2)NC1=O (stereo not drawn) [Example I-1-a-4] are the same in “efficacy (beetle larvae killed)” value: 83% for the first, 83% for the second.

CCc1ccc(-c2ccc(Cl)cc2)c(CC)c1C1=C(O)[C@]2(CC[C@H](OC)CC2)OC1=O [Example I-2-a-1] and CCc1ccc(-c2ccc(Cl)cc2)c(C)c1C1=C(O)C2(CCC(OC)CC2)OC1=O (single isomer, unassigned) [Example I-2-a-5] are the same in “efficacy (beetle larvae killed)” value: 100% for the first, 100% for the second.

CCc1cc(C)c(-c2ccc(Cl)cc2)c(C)c1C1=C(O)C2(CCC(OC)CC2)NC1=O (stereo not drawn) [Example I-1-a-7] and CCc1cc(C)c(-c2ccc(Cl)cc2)c(C)c1C1=C(O)C2(CCOCC2)NC1=O [Example I-1-a-8] are the same in “efficacy (beetle larvae killed)” value: 100% for the first, 100% for the second.

CCc1ccc(-c2ccc(Cl)cc2)c(CC)c1C1=C(O)C2(CCC(OC)CC2)NC1=O (stereo not drawn) [Example I-1-a-19] and CCc1ccc(-c2ccc(Cl)cc2)c(C)c1C1=C(O)C2(CCC(OC)CC2)OC1=O (single isomer, unassigned) [Example I-2-a-6] are the same in “efficacy (beetle larvae killed)” value: 100% for the first, 100% for the second.

System: green peach aphid (Myzus persicae)
Assay: Myzus test (MYZUPE spray treatment)
Type: in vivo
Details: application rate 100 g/ha; Chinese cabbage leaf discs sprayed; after 6 days
Description: Myzus Test (MYZUPE Spray Treatment)
• Solvents: 78 parts by weight of acetone • 1.5 parts by weight of dimethylformamide • Emulsifier: 0.5 part by weight of alkylaryl polyglycol ether
To produce a suitable preparation of active compound, 1 part by weight of active compound is mixed with the stated amounts of solvent and emulsifier, and the concentrate is diluted with emulsifier-containing water to the desired concentration. Discs of Chinese cabbage (Brassica pekinensis) which are infested by all stages of the green peach aphid (Myzus persicae) are sprayed with an active compound preparation of the desired concentration. After 6 days, the effect in % is determined. 100% means that all aphids have been killed; 0% means that none of the aphids have been killed.

For CCc1cc(C)c(-c2ccc(Cl)cc2)c(C)c1C1=C(O)C2(CCC(OC)CC2)NC1=O (stereo not drawn) [Example I-1-a-7], the “efficacy (aphids killed)” value was 90%.

Same assay, conditions: application rate 500 g/ha; Chinese cabbage leaf discs sprayed; after 6 days

CCc1ccc(-c2ccc(Cl)cc2)c(CC)c1C1=C(O)C2(CCOCC2)NC1=O [Example I-1-a-1] and CCc1c(-c2ccc(Cl)cc2)ccc(C)c1C1=C(O)C2(CCOCC2)NC1=O [Example I-1-a-17] are the same in “efficacy (aphids killed)” value: 100% for the first, 100% for the second.

First: CCc1ccc(-c2ccc(F)cc2)c(CC)c1C1=C(O)C2(CCC(OC)CC2)NC1=O (stereo not drawn) [Example I-1-a-18]
Second: CCc1c(-c2ccc(F)cc2)ccc(C)c1C1=C(O)C2(CCC(OC)CC2)NC1=O (stereo not drawn) [Example I-1-a-9]
The “efficacy (aphids killed)” value of the first is higher: 100% for the first, 90% for the second.

CCON1CCC2(CC1)NC(=O)C(c1c(CC)ccc(-c3ccc(Cl)cc3)c1C)=C2O [Example I-1-a-22] and CCc1ccc(-c2ccc(Cl)cc2)c(C)c1C1=C(O)C2(CCN(OC)CC2)NC1=O [Example I-1-a-23] are the same in “efficacy (aphids killed)” value: 100% for the first, 100% for the second.

CCc1ccc(-c2ccc(Cl)cc2)c(CC)c1C1=C(O)[C@]2(CC[C@H](OC)CC2)OC1=O [Example I-2-a-1] and CCc1ccc(-c2ccc(Cl)cc2)c(C)c1C1=C(O)C2(CCC(OC)CC2)OC1=O (single isomer, unassigned) [Example I-2-a-5] are the same in “efficacy (aphids killed)” value: 90% for the first, 90% for the second.

CCc1cc(C)c(-c2ccc(Cl)cc2)c(C)c1C1=C(O)C2(CCOCC2)NC1=O [Example I-1-a-8] and CCc1ccc(-c2ccc(Cl)cc2)c(C)c1C1=C(O)C2(CCOCC2)NC1=O [Example I-1-a-3] are the same in “efficacy (aphids killed)” value: 100% for the first, 100% for the second.

Going from CCc1ccc(-c2ccc(F)cc2)c(C)c1C1=C(O)C2(CCC(OC)CC2)NC1=O (stereo not drawn) [Example I-1-a-4] to CCc1ccc(-c2ccc(Cl)cc2)c(C)c1C1=C(O)C2(CCC(OC)CC2)OC1=O (single isomer, unassigned) [Example I-2-a-6], the “efficacy (aphids killed)” value rises from 90% to 100%.

Cc1c(-c2ccc(Cl)cc2)ccc(Cl)c1C1=C(O)C2(CCOCC2)NC1=O [Example I-1-a-15] was tested, and the “efficacy (aphids killed)” value was 100%.

System: greenhouse red spider mite (Tetranychus urticae)
Assay: Tetranychus test; OP-resistant (TETRUR spray treatment)
Type: in vivo
Details: application rate 100 g/ha; bean leaf discs sprayed; after 6 days
Description: Tetranychus Test; OP-Resistant (TETRUR Spray Treatment)
as §2
To produce a suitable preparation of active compound, 1 part by weight of active compound is mixed with the stated amounts of solvent and emulsifier, and the concentrate is diluted with emulsifier-containing water to the desired concentration. Discs of bean leaves (Phaseolus vulgaris), which are infested by all stages of the greenhouse red spider mite (Tetranychus urticae) are sprayed with an active compound preparation of the desired concentration.
After 6 days, the effect in % is determined. 100% means that all spider mites have been killed; 0% means that none of the spider mites have been killed.

Going from CCc1ccc(-c2ccc(Cl)cc2)c(CC)c1C1=C(O)C2(CCOCC2)NC1=O [Example I-1-a-1] to CCc1c(-c2ccc(Cl)cc2)ccc(C)c1C1=C(O)C2(CCOCC2)NC1=O [Example I-1-a-17], the “efficacy (spider mites killed)” value rises from 80% to 100%.

Going from CCc1ccc(-c2ccc(F)cc2)c(CC)c1C1=C(O)C2(CCC(OC)CC2)NC1=O (stereo not drawn) [Example I-1-a-18] to CCc1ccc(-c2ccc(Cl)cc2)c(CC)c1C1=C(O)C2(CCC(OC)CC2)NC1=O (stereo not drawn) [Example I-1-a-19], the “efficacy (spider mites killed)” value falls from 100% to 90%.

CCON1CCC2(CC1)NC(=O)C(c1c(CC)ccc(-c3ccc(Cl)cc3)c1C)=C2O [Example I-1-a-22] and CCc1ccc(-c2ccc(Cl)cc2)c(C)c1C1=C(O)C2(CCN(OC)CC2)NC1=O [Example I-1-a-23] are the same in “efficacy (spider mites killed)” value: 90% for the first, 90% for the second.

Compared with CCc1c(-c2ccc(F)cc2)ccc(C)c1C1=C(O)C2(CCC(OC)CC2)NC1=O (stereo not drawn) [Example I-1-a-9], CCc1ccc(-c2ccc(F)cc2)c(C)c1C1=C(O)C2(CCC(OC)CC2)NC1=O (stereo not drawn) [Example I-1-a-4] is higher in “efficacy (spider mites killed)” value: 70% for the first, 100% for the second.

CCc1ccc(-c2ccc(Cl)cc2)c(CC)c1C1=C(O)[C@]2(CC[C@H](OC)CC2)OC1=O [Example I-2-a-1] and CCc1ccc(-c2ccc(Cl)cc2)c(C)c1C1=C(O)C2(CCC(OC)CC2)OC1=O (single isomer, unassigned) [Example I-2-a-6] are the same in “efficacy (spider mites killed)” value: 100% for the first, 100% for the second.

CCc1cc(C)c(-c2ccc(Cl)cc2)c(C)c1C1=C(O)C2(CCC(OC)CC2)NC1=O (stereo not drawn) [Example I-1-a-7] and CCc1cc(C)c(-c2ccc(Cl)cc2)c(C)c1C1=C(O)C2(CCOCC2)NC1=O [Example I-1-a-8] are the same in “efficacy (spider mites killed)” value: 90% for the first, 90% for the second.

CCc1ccc(-c2ccc(Cl)cc2)c(C)c1C1=C(O)C2(CCOCC2)NC1=O [Example I-1-a-3] and Cc1c(-c2ccc(Cl)cc2)ccc(Cl)c1C1=C(O)C2(CCOCC2)NC1=O [Example I-1-a-15] are the same in “efficacy (spider mites killed)” value: 90% for the first, 90% for the second.

System: caterpillars of the armyworm (Spodoptera frugiperda)
Assay: Spodoptera frugiperda test (SPODFR spray treatment)
Type: in vivo
Details: application rate 500 g/ha; maize leaf discs sprayed; after 7 days
Description: Spodoptera frugiperda Test (SPODFR Spray Treatment)
as §2
To produce a suitable preparation of active compound, 1 part by weight of active compound is mixed with the stated amounts of solvent and emulsifier, and the concentrate is diluted with emulsified water to the desired concentration. Discs of maize leaves (Zea mays) are sprayed with an active compound preparation of the desired concentration and, after drying, populated with caterpillars of the armyworm (Spodoptera frugiperda).
After 7 days, the effect in % is determined. 100% means that all caterpillars have been killed; 0% means that none of the caterpillars have been killed.

First: CCc1ccc(-c2ccc(Cl)cc2)c(C)c1C1=C(O)C2(CCOCC2)NC1=O [Example I-1-a-3]
Second: Cc1c(-c2ccc(Cl)cc2)ccc(Cl)c1C1=C(O)C2(CCOCC2)NC1=O [Example I-1-a-15]
The “efficacy (caterpillars killed)” value of the first is lower: 80% for the first, 83% for the second.

System: Boophilus microplus
Assay: Boophilus microplus test (BOOPMI injection)
Type: in vivo
Details: application rate 20 μg/animal; injection into the abdomen; after 7 days
Description: Boophilus microplus Test (BOOPMI Injection)
as §1
To produce a suitable preparation of active compound, 10 mg of active compound are mixed with 0.5 ml of solvent and the concentrate is diluted with solvent to the desired concentration. The solution of active compound is injected into the abdomen (Boophilus microplus) and the animals are transferred into dishes and stored in a climatized room. The efficacy is monitored for deposition of fertile eggs.
After 7 days, the effect in % is determined. 100% means that none of the ticks has laid any fertile eggs.

First: CCc1c(-c2ccc(F)cc2)ccc(C)c1C1=C(O)C2(CCC(OC)CC2)NC1=O (stereo not drawn) [Example I-1-a-9]
Second: CCc1ccc(-c2ccc(Cl)cc2)c(C)c1C1=C(O)C2(CCOCC2)NC1=O [Example I-1-a-3]
The “efficacy (deposition of fertile eggs)” value of the first is higher: 100% for the first, 80% for the second.
